Experimental data taken from patent publication US7897620B2, “Methods of using anti-inflammatory compounds” (Cambridge Enterprise Limited, priority 2007, dated 2011).

Key:
[1] = Pharmacokinetics following a single dose in rat (LC-MS/MS of blood, one-compartment model); type: in vivo; conditions: single oral dose
Procedure: Compounds were administered as a single dose (either 1 mg/kg bodyweight in 5% DMSO via the intravenous route or 3 mg/kg in 1% carboxymethylcellulose via the oral route) to three adult rats (using different rats for each compound and each route of administration).
Blood was then sampled at various time points (including just prior to dose administration) out to 24 hrs post dose, and the level of the various compounds was assessed using a validated LC-MS/MS assay. Briefly, 3-5 μl of the deproteinised sample was applied to a Waters Atlantis (C18 20×2.1 mm, 3 μm bead size) reverse phase chromatography column equilibrated in 0.1% formic acid in 95:5 water:actetonitrile. Over 3.5 minutes bound material was gradient eluted reaching 0.1% formic acid in 5:95 water:acetonitrile, followed by a step gradient back to 0.1% formic acid in 95:5 water:acetonitrile. The column eluent was then directed to an Applied Biosystems API 4000/3200 QTrap MS/MS mass spectrometer, with a Turbolonspray™ ion source operating in positive ion mode. The interface temperature was set at 650° C., with a 40 ms dwell time for each MRM transition, monitoring the following ions:
The internal standard in each determination was the related compound (S)-3-(2′,2′-dimethylpropanoylamino)-caprolactam, which was spiked into the sample prior to deproteinization. The lower limit of quantitation (LLOQ) for this assay was 2.4 ng/ml for each compound except (I′), where it was 38.1 ng/ml.
Following LC-MS/MS analysis of each collected sample, the pharmacokinetic disposition of the compound was modelled using Kinetica software, a well known software package for such applications.

[2] = Water solubility (observation); type: physicochemical
[3] = system: chemokine-induced migration; test: BSCI activity in vitro, chemokine-induced migration (general statements); type: cell-based; conditions: prior art peptides compared
[4] = Potency in vivo, model not stated; conditions: prior art peptides compared
[5] = in vivo, cited from earlier work

exposure following a single oral dose, fold higher than the other lactam BSCIs tested [1]	water solubility [2]	Compound	fold less potent in vitro [3] [fold]	fold less potent in vivo [4]	half-life period of clearance from blood plasma ([5]; iv)	oral bioavailability ([5]; po)
more than 10 fold	significant water solubility	CC(C)(C)C(=O)NC1CCCNC1=O (stereo not drawn) [Compound (I), 3-(2′,2′-dimethylpropanoylamino)-tetrahydropyridin-2-one]	–	–	–	–
–	–	c(DCys-DGln-DIle-DTrp-DLys-DGln-DLys-DPro-DAsp-DLeu-DCys)-NH2 [NR58-3.14.3]	> 25	> 10,000 fold	less than 30 minutes	not orally bioavailable
